Results as given in ChEMBL document CHEMBL3797029, “Purinylpyridinylamino-based DFG-in/αC-helix-out B-Raf inhibitors: Applying mutant versus wild-type B-Raf selectivity indices for compound profiling” (Bioorg Med Chem, 2016).

Legend:
[1] = biological target: Dual specificity tyrosine-phosphorylation-regulated kinase 1A (Homo sapiens) (UniProt Q13627); assay: Inhibition of partial length wild type human DYRK1A expressed in mammalian system assessed as enzyme activity at 1 uM relative to control; parameters: scale not given: the % may be the effect or the level left
[2] = biological target: Mitogen-activated protein kinase 10 (Homo sapiens) (UniProt P53779); assay: Inhibition of partial length wild type human JNK3 expressed in mammalian system assessed as enzyme activity at 1 uM relative to control; parameters: scale not given: the % may be the effect or the level left
[3] = biological target: Rho-associated protein kinase 2 (Homo sapiens) (UniProt O75116); assay: Inhibition of partial length wild type human ROCK2 expressed in mammalian system assessed as enzyme activity at 1 uM relative to control; parameters: scale not given: the % may be the effect or the level left
[4] = biological target: Insulin-like growth factor 1 receptor (Homo sapiens) (UniProt P08069); assay: Inhibition of partial length wild type human IGF1R expressed in bacterial system assessed as enzyme activity at 1 uM relative to control; parameters: scale not given: the % may be the effect or the level left
[5] = biological target: RAC-beta serine/threonine-protein kinase (Homo sapiens) (UniProt P31751); assay: Inhibition of partial length wild type human AKT2 expressed in bacterial system assessed as enzyme activity at 1 uM relative to control; parameters: scale not given: the % may be the effect or the level left
[6] = biological target: ALK tyrosine kinase receptor (Homo sapiens) (UniProt Q9UM73); assay: Inhibition of partial length wild type human ALK expressed in mammalian system assessed as enzyme activity at 1 uM relative to control; parameters: scale not given: the % may be the effect or the level left
[7] = biological target: Calcium/calmodulin-dependent protein kinase type IV (Homo sapiens) (UniProt Q16566); assay: Inhibition of partial length wild type human CAMK4 expressed in bacterial system assessed as enzyme activity at 1 uM relative to control; parameters: scale not given: the % may be the effect or the level left
[8] = biological target: Cyclin-dependent kinase 2 (Homo sapiens) (UniProt P24941); assay: Inhibition of full length wild type human CDK2 expressed in bacterial system assessed as enzyme activity at 1 uM relative to control; parameters: scale not given: the % may be the effect or the level left
[9] = biological target: Cyclin-dependent kinase 8 (Homo sapiens) (UniProt P49336); assay: Inhibition of partial length wild type human CDK8 expressed in bacterial system assessed as enzyme activity at 1 uM relative to control; parameters: scale not given: the % may be the effect or the level left
[10] = biological target: Dual specificity protein kinase CLK4 (Homo sapiens) (UniProt Q9HAZ1); assay: Inhibition of partial length wild type human CLK4 expressed in bacterial system assessed as enzyme activity at 1 uM relative to control; parameters: scale not given: the % may be the effect or the level left
[11] = biological target: Myotonin-protein kinase (Homo sapiens) (UniProt Q09013); assay: Inhibition of partial length wild type human DMPK expressed in bacterial system assessed as enzyme activity at 1 uM relative to control; parameters: scale not given: the % may be the effect or the level left
[12] = biological target: Glycogen synthase kinase-3 beta (Homo sapiens) (UniProt P49841); assay: Inhibition of full length wild type human GSK3beta expressed in mammalian system assessed as enzyme activity at 1 uM relative to control; parameters: scale not given: the % may be the effect or the level left
[13] = biological target: Insulin receptor (Homo sapiens) (UniProt P06213); assay: Inhibition of partial length wild type human INSR expressed in mammalian system assessed as enzyme activity at 1 uM relative to control; parameters: scale not given: the % may be the effect or the level left
[14] = biological target: Mitogen-activated protein kinase kinase kinase kinase 4 (Homo sapiens) (UniProt O95819); assay: Inhibition of partial length wild type human MAP4K4 expressed in bacterial system assessed as enzyme activity at 1 uM relative to control; parameters: scale not given: the % may be the effect or the level left
[15] = biological target: MAP/microtubule affinity-regulating kinase 3 (Homo sapiens) (UniProt P27448); assay: Inhibition of full length wild type human MARK3 expressed in bacterial system assessed as enzyme activity at 1 uM relative to control; parameters: scale not given: the % may be the effect or the level left
[16] = biological target: Serine/threonine-protein kinase Nek4 (Homo sapiens) (UniProt P51957); assay: Inhibition of full length wild type human NEK4 expressed in mammalian system assessed as enzyme activity at 1 uM relative to control; parameters: scale not given: the % may be the effect or the level left
[17] = biological target: Platelet-derived growth factor receptor beta (Homo sapiens) (UniProt P09619); assay: Inhibition of partial length wild type human PDGFRbeta expressed in bacterial system assessed as enzyme activity at 1 uM relative to control; parameters: scale not given: the % may be the effect or the level left
[18] = biological target: Serine/threonine-protein kinase D2 (Homo sapiens) (UniProt Q9BZL6); assay: Inhibition of partial length wild type human PRKD2 expressed in bacterial system assessed as enzyme activity at 1 uM relative to control; parameters: scale not given: the % may be the effect or the level left
[19] = biological target: High affinity nerve growth factor receptor (Homo sapiens) (UniProt P04629); assay: Inhibition of partial length wild type human TRKA expressed in mammalian system assessed as enzyme activity at 1 uM relative to control; parameters: scale not given: the % may be the effect or the level left
[20] = biological target: Testis-specific serine/threonine-protein kinase 1 (Homo sapiens) (UniProt Q9BXA7); assay: Inhibition of full length wild type human TSSK1B expressed in bacterial system assessed as enzyme activity at 1 uM relative to control; parameters: scale not given: the % may be the effect or the level left
[21] = biological target: Serine/threonine-protein kinase B-raf (Homo sapiens, UniProt P15056); assay: Inhibition of wild type B-Raf in human MIAPaCa2 cells assessed as reduction in ERK phosphorylation preincubated for 1 hr by Western blot method; assay type: cell-based, MIA PaCa-2
[22] = biological target: Serine/threonine-protein kinase B-raf (Homo sapiens, UniProt P15056, V600E); assay: Inhibition of B-Raf V600E mutant in human A375 cells assessed as ERK phosphorylation preincubated for 1 hr by Western blot method; assay type: cell-based, A-375
[23] = biological target: LIM domain kinase 1 (Homo sapiens) (UniProt P53667); assay: Inhibition of full length wild type human LIMK1 expressed in bacterial system assessed as enzyme activity at 1 uM relative to control; parameters: scale not given: the % may be the effect or the level left
[24] = biological target: Angiopoietin-1 receptor (Homo sapiens) (UniProt Q02763); assay: Inhibition of partial length wild type human TIE2 expressed in bacterial system assessed as enzyme activity at 1 uM relative to control; parameters: scale not given: the % may be the effect or the level left
[25] = biological target: TGF-beta receptor type-1 (Homo sapiens) (UniProt P36897); assay: Inhibition of partial length wild type human TGFBR1 expressed in bacterial system assessed as enzyme activity at 1 uM relative to control; parameters: scale not given: the % may be the effect or the level left
[26] = biological target: Aurora kinase A (Homo sapiens) (UniProt O14965); assay: Inhibition of partial length wild type human AURKA expressed in mammalian system assessed as enzyme activity at 1 uM relative to control; parameters: scale not given: the % may be the effect or the level left
[27] = biological target: Casein kinase II subunit alpha (Homo sapiens) (UniProt P68400); assay: Inhibition of full length wild type human CSNK2A1 expressed in mammalian system assessed as enzyme activity at 1 uM relative to control; parameters: scale not given: the % may be the effect or the level left
[28] = biological target: Cyclin-G-associated kinase (Homo sapiens) (UniProt O14976); assay: Inhibition of partial length wild type human GAK expressed in bacterial system assessed as enzyme activity at 1 uM relative to control; parameters: scale not given: the % may be the effect or the level left
[29] = biological target: Hepatocyte growth factor receptor (Homo sapiens) (UniProt P08581); assay: Inhibition of partial length wild type human MET expressed in bacterial system assessed as enzyme activity at 1 uM relative to control; parameters: scale not given: the % may be the effect or the level left
[30] = biological target: Serine/threonine-protein kinase OSR1 (Homo sapiens) (UniProt O95747); assay: Inhibition of full length wild type human OSR1 expressed in mammalian system assessed as enzyme activity at 1 uM relative to control; parameters: scale not given: the % may be the effect or the level left
[31] = biological target: Wee1-like protein kinase (Homo sapiens) (UniProt P30291); assay: Inhibition of partial length wild type human WEE1 expressed in bacterial system assessed as enzyme activity at 1 uM relative to control; parameters: scale not given: the % may be the effect or the level left
[32] = biological target: Vascular endothelial growth factor receptor 2 (Homo sapiens) (UniProt P35968); assay: Inhibition of partial length wild type human VEGFR2 expressed in mammalian system assessed as enzyme activity at 1 uM relative to control; parameters: scale not given: the % may be the effect or the level left
[33] = biological target: Serine/threonine-protein kinase Chk1 (Homo sapiens) (UniProt O14757); assay: Inhibition of partial length wild type human CHEK1 expressed in bacterial system assessed as enzyme activity at 1 uM relative to control; parameters: scale not given: the % may be the effect or the level left

Sequence of Serine/threonine-protein kinase B-raf (Homo sapiens, UniProt P15056) (P15056 whole entry): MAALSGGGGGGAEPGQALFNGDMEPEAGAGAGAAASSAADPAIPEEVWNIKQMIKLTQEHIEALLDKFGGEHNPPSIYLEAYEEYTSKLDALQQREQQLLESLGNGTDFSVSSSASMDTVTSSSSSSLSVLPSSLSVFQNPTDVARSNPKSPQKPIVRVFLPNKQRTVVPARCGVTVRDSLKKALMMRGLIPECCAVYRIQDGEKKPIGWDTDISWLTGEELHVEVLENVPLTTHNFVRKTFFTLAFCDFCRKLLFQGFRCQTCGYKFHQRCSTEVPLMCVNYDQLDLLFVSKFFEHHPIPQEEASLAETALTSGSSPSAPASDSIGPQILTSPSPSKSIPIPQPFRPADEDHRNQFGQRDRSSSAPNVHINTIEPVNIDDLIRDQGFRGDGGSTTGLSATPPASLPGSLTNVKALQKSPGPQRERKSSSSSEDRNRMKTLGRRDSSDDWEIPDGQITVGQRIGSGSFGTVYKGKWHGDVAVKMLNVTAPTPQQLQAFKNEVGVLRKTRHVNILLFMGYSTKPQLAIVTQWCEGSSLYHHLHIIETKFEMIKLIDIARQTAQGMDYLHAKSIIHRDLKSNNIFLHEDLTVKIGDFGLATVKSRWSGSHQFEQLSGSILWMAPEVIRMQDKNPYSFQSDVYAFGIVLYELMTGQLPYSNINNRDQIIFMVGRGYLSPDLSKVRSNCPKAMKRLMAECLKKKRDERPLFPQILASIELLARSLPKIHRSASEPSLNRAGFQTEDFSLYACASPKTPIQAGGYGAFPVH
Sequence of Serine/threonine-protein kinase B-raf (Homo sapiens, UniProt P15056, V600E) (P15056 2-766 V600E limits assumed): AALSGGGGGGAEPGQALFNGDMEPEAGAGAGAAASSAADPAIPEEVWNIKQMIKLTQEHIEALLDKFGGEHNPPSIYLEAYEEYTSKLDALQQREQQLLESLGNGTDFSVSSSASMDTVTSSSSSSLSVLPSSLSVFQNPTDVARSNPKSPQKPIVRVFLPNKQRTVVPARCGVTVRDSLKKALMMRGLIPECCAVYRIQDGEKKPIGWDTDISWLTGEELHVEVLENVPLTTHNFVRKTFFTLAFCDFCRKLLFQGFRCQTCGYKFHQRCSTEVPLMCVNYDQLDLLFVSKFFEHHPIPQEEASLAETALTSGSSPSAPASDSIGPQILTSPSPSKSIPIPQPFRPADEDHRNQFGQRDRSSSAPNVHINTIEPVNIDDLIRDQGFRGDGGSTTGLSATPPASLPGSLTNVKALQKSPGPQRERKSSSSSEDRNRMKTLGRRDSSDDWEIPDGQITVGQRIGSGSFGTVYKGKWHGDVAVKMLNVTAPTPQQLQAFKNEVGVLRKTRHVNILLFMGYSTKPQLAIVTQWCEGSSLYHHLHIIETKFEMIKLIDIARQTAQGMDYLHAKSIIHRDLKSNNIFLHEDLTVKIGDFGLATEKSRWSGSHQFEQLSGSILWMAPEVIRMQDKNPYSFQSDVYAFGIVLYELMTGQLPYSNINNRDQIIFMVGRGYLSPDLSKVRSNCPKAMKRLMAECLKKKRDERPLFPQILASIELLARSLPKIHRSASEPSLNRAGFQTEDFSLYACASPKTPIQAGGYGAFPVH
Sequence of Casein kinase II subunit alpha (Homo sapiens) (P68400 whole entry, looked up): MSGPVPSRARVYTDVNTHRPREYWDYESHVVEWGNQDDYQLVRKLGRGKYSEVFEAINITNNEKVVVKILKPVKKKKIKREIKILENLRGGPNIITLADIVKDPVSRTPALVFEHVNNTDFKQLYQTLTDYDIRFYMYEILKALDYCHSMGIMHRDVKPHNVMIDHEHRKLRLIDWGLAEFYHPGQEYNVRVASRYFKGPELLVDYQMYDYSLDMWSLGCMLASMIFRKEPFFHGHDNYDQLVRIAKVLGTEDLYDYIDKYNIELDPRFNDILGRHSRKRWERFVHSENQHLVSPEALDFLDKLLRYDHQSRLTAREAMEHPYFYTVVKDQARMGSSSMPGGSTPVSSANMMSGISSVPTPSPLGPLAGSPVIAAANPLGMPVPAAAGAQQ
Sequence of Mitogen-activated protein kinase kinase kinase kinase 4 (Homo sapiens) (O95819 2-1239 limits assumed): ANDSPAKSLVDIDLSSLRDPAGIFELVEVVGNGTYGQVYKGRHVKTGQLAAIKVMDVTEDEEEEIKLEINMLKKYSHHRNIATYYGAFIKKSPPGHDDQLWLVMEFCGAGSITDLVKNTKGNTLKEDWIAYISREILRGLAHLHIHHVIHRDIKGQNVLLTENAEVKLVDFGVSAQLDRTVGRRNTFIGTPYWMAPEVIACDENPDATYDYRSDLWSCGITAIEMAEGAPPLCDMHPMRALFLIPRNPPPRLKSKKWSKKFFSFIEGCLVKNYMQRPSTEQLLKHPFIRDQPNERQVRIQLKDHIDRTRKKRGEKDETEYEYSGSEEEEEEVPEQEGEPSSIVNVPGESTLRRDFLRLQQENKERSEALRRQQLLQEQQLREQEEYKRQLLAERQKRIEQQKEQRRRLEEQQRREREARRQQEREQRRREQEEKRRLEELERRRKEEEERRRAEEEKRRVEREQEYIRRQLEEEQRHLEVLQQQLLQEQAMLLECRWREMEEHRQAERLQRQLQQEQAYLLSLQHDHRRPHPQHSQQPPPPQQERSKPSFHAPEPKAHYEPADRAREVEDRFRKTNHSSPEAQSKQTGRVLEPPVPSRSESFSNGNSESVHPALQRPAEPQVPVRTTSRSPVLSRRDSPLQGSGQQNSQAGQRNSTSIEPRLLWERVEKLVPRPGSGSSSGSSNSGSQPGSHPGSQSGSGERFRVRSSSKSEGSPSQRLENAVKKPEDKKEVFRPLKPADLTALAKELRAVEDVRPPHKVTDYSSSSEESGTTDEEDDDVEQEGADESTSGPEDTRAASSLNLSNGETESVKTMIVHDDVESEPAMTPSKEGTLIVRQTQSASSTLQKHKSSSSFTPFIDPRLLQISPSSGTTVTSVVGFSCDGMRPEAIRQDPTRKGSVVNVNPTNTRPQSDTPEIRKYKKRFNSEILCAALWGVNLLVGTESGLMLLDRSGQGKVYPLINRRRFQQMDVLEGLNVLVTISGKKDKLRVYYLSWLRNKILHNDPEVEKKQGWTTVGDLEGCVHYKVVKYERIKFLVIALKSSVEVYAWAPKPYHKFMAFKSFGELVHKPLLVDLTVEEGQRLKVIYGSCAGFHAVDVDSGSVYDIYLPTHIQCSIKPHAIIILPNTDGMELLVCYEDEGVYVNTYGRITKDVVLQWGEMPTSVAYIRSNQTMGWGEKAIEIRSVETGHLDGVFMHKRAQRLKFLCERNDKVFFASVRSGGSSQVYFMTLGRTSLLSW
Sequence of High affinity nerve growth factor receptor (Homo sapiens) (P04629 33-796 limits assumed): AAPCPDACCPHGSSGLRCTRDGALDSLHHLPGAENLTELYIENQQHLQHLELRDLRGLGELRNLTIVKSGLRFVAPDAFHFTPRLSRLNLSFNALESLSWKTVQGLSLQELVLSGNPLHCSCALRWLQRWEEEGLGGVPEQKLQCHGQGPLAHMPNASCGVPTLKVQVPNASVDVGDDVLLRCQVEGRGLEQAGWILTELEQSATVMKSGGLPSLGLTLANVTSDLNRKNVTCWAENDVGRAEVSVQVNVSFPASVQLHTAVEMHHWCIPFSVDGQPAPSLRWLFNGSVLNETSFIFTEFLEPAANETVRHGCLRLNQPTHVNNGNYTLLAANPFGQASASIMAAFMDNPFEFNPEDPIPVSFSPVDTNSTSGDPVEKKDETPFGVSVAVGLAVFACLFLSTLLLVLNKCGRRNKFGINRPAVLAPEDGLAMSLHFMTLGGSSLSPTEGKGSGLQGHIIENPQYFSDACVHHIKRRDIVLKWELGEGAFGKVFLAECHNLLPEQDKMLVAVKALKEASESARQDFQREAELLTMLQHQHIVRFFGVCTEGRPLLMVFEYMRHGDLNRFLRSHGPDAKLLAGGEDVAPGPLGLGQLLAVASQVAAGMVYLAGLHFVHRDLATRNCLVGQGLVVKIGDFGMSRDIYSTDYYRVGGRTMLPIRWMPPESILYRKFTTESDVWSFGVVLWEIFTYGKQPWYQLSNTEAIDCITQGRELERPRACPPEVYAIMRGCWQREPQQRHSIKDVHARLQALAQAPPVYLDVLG
Sequence of Testis-specific serine/threonine-protein kinase 1 (Homo sapiens) (Q9BXA7 whole entry): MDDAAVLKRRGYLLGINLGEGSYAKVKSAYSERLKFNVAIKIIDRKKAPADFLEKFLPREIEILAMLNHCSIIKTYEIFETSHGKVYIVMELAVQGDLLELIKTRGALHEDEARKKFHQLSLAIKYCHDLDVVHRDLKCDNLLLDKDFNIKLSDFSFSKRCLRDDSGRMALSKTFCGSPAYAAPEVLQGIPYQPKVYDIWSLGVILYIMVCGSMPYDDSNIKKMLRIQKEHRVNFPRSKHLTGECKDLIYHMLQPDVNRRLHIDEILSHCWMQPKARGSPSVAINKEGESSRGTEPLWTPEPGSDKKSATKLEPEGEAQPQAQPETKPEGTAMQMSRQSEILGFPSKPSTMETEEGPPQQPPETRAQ
Sequence of Dual specificity protein kinase CLK4 (Homo sapiens) (Q9HAZ1 whole entry, looked up): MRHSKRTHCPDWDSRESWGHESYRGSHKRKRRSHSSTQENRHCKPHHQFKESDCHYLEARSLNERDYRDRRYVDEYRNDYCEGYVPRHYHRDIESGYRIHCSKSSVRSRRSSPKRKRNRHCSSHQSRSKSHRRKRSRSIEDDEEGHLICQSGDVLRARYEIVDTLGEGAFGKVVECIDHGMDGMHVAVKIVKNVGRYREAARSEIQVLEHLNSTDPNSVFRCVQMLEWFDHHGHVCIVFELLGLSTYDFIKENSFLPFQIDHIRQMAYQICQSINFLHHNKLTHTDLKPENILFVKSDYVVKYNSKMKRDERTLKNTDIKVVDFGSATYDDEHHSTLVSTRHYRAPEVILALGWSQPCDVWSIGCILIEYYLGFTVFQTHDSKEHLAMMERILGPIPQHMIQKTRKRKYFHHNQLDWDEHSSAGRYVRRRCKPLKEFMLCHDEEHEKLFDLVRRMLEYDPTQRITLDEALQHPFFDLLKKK

Activity [1]: 96%
Activity [2]: 89%
Activity [3]: 92%
Activity [4]: 98%
Activity [5]: 100%
Activity [6]: 96%
Activity [7]: 83%
Activity [8]: 99%
Activity [9]: 85%
Activity [10]: 70%
Activity [11]: 100%
Activity [12]: 100%
Activity [13]: 100%
Activity [14]: 98%
Activity [15]: 87%
Activity [16]: 100%
Activity [17]: 73%
Activity [18]: 88%
Activity [19]: 100%
Activity [20]: 100%
EC50 [21]: 1780 nM
IC50 [22]: 54 nM
Activity [23]: 57%
Activity [24]: 63%
Activity [25]: 65%
Activity [26]: 73%
Activity [27]: 64%
Activity [28]: 78%
Activity [29]: 88%
Activity [30]: 88%
Activity [31]: 90%
Activity [32]: 84%
Activity [33]: 86%
SMILES: CN(C)S(=O)(=O)Nc1ccc(F)c(Nc2ncccc2-c2ncnc3[nH]cnc23)c1F
